Data set [1] is described as follows: Solubility (physicochemical properties). Particulars: for Solubility in hydrated solvent: aqueous methanol or aqueous acetonitrile, percentage range given per compound; for Solubility in less-polar organic solvents: such as hexane or chloroform (Me1H1W4: chloroform and toluene).
The next data set relates to Monostroma oxyspermum. Kind of data set: Minimum effective concentration (MEC) for thallus formation in Monostroma oxyspermum culture. It is filed as cell-based. The protocol: One ml of modified ASP7 medium was added in the wells of the first row of 48-well microtitre plates (Iwaki, hereafter abbreviated as 48-MTP) and 0.9 ml of modified ASP7 medium was added in the wells of the second and subsequent rows. Eleven μl of the active substance fraction of the target was added individually and mixed well by pipetting in the wells on the first row, followed by adding 100 μl of this mixed solution to the wells on the next row. By repeating this procedures subsequently for 8 to 18 times for each fraction, a ten-fold serial dilution can be prepared in 8 to 18 steps. 100 μl that remained in solution in the wells on the last row was discarded. Here, 100 μl of Monostroma oxyspermum culture medium was diluted subsequently so that the final cell concentration of 10 to 20 cells per 1 ml, was delivered to all wells of 48-MTP to bring the total amount of solution to 1 ml. […] The MEC is used as an index for isolation.
Similar to the case of Example 1, isolated and purified novel chemical substance 1 was serially diluted in 16 steps starting with the final concentration of 1 μg/ml. At this time, the Monostroma oxyspermum cell number was adjusted to be 20 cells per 1 ml of the medium. Fresh pipet tips were used for each step dilution. Three sets of these series were prepared and were cultivated for 3 days under the same condition as Example 1. […] Based on this, the MEC of the novel chemical substance 1 will be as follows.
Similar to Example 5, the MEC of the novel chemical substance 1 and its derivatives are measured and the results are shown below.

A further data set relates to Ulva pertusa. The experiment in a line: Culturing experiment of Ulva pertusa. The data set is classed as cell-based. Particulars: 1 ng/ml in ASP7 medium, vs control group without addition (FIG. 15). The procedure:
(§1) Spores obtained from the Ulva pertusa and Enteromorpha intestinalis collected from Miho Shimizu-city, Shizuoka were washed using their phototaxis activity in the ASP7 medium supplemented with the antibiotics, and then were transferred to rectangular petri dishes filled with sterilized covered glasses and aseptized for 5 days. When the free-living cells had attached to the cover glasses and had start growing, each cover glass was placed in each hole of 6-MTP, followed by adding 10 ml of the ASP7 medium not supplemented with antibiotics. For a test group, the novel chemical substance 1 was added to result in 1 ng/ml and for the control group, nothing was added. They were incubtaed for 7 days under the same conditions as in Example 1. […], the cover glasses of the test group and control section were transferred to the culture test tube containing the medium prepared under the same condition to further incubate another 7 days. […] In addition, the ASP7 medium supplemented with antibiotics is an ASP medium, having the following composition and containing 2% antibiotics.

Data set [2] can be described thus: Stability of the substances. It is filed as physicochemical.
In data set [3] the test system is Enteromorpha intestinalis. Kind of data set: Culturing experiment of Enteromorpha intestinalis. The data set is classed as cell-based. As to conditions: 1 ng/ml in ASP7 medium, vs control group without addition (FIG. 16). The procedure: as §1
Where [4] appears, read: thallus formation of Monostroma oxyspermum, measured similar to Example 5.

Take `CC1(C)CCC[C@]2(C)C3C[C@H]4c5ccc(CO)nc5CO[C@@]4(CO)O[C@]3(C)CC[C@@H]12` (stereo partly shown) [Me1H1W4]: in data set [1], the “Solubility in hydrated solvent” value is “soluble”, the “Solubility in less-polar organic solvents” value was “soluble” and the Solubility in water entry is “Poorly soluble”. Also, the “Solubility in non-polar solvent” value in data set [1] (such as hexane) is on record as “hardly soluble”.
Take `CC1(C)CCC[C@]2(C)C3CC(c4ccc(CO)nc4CO)=C(CO)O[C@]3(C)CC[C@@H]12` (stereo partly shown) [Me1H1]: the MEC entry with Monostroma oxyspermum (setting [4]) is given as “No activity”. Moreover, in data set [1], the “Solubility in hydrated solvent” value was “soluble”, the “Solubility in less-polar organic solvents” value is listed as “soluble” and the Solubility in water result is listed as “hardly soluble”.
Take `COC(=O)C1=C(c2ccc(C(=O)OC)nc2C(=O)OC)CC2[C@@](C)(CC[C@H]3C(C)(C)CCC[C@]23C)O1` (stereo partly shown) [Me1]: the MEC in the data set with Monostroma oxyspermum (setting [4]) is on record as 10^−4 μg/ml. The “Solubility in DMSO” value in data set [1] (DMSO) is on record as “hardly soluble”. Moreover, in data set [1], the “Solubility in hydrated solvent” value was “soluble”, the “Solubility in less-polar organic solvents” value is given as “hardly soluble” and the Solubility in water entry is on record as “hardly soluble”.
For the molecule `CC1(C)CCC[C@]2(C)C3CC(c4ccc(C(=O)O)nc4C(=O)O)=C(C(=O)O)O[C@]3(C)CC[C@@H]12` (stereo partly shown) [Novel Chemical Substance 1], the MEC is 1 ag/ml in the data set with Monostroma oxyspermum (cultivated for 3 days, 20 cells per 1 ml, thallus formation at 12-step ten-fold dilution from 1 μg/ml) and 10^−12 μg/ml with Monostroma oxyspermum (setting [4]). The “MEC after 10 days cultivation” value in the data set on Monostroma oxyspermum (cultivated for 10 days, six-step dilution from 1 μg/ml) amounted to 1 pg/mL. Further, the Thallus state result in the data set with Monostroma oxyspermum (seven-step dilution, final concentration 1×10^−7 μg/ml, cultivated for 10 days (FIG. 13)) is “the disrupted thallus is observed”; in the data set on Monostroma oxyspermum (six-step dilution, final concentration 1×10^−6 μg/ml, cultivated for 10 days (FIG. 14)), “The thallus was maintained without being collapsed”. The “Development and thallus formation” value in the data set with Ulva pertusa is “normal development and thallus formation were observed”; in data set [3], “normal development and thallus formation were observed”. Moreover, the Stability result is “quite stable” in data set [2] (general statement) and “relatively stable” in data set [2] (substance induced under alkali condition).

These data come from patent US7279314B2, “Chemical substance having morphogenetic and growth-accelerating activities” (Marine Biotechnology Institute Co., Ltd., priority 2002, dated 2007).
